The results in this text go back to BindingDB's records for doi:10.1016/j.chembiol.2014.09.011 (Astrazeneca R&D, 2014).

The structures appear in SMILES notation.

Common to all, as to test: AMPD Enzymatic Activity Assay
Common to all, as to conditions: pH 7.4

One assay addresses T1, AMP deaminase 3 (Homo sapiens, UniProt Q01432).
T1 sequence (Q01432 whole entry): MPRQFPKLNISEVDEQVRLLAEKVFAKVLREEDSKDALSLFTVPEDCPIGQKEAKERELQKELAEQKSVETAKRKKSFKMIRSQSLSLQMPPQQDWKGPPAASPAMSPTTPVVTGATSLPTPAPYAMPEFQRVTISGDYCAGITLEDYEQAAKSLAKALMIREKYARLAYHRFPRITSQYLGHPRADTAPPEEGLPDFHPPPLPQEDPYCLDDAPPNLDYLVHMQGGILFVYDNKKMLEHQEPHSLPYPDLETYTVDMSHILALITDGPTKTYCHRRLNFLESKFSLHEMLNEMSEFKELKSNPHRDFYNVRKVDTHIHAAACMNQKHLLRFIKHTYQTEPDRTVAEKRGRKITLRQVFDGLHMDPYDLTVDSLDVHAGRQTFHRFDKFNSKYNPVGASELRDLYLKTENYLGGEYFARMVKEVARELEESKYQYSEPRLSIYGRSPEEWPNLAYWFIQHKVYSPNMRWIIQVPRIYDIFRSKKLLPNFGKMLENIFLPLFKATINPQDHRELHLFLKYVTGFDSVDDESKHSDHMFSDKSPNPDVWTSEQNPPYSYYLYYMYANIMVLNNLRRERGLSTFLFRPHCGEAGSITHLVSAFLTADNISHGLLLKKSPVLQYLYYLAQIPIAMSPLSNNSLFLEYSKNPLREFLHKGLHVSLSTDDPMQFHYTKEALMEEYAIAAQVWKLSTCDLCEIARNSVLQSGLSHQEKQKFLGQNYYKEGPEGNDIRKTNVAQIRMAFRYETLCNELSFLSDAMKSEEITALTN
The protocol: (§1) AMPD1 was added to buffer A (50 mM HEPES, 150 mM KCl, 5 mM MgCl2, and 0.5 mMglutathione [pH 7.4]) to a concentration of 10 nM. A substrate mix consistingof 2mMNADPH, 6mMa-ketoglutarate, 8mMAMP, and 15 U GDH was prepared in buffer A. Substrate mix ([…]) was added to the plate, followed by centrifugation and incubation for 1 hr. Detection was by absorbance at 340 nm following the conversion of NADPH to NADP+. Recombinant AMPD enzyme activity assays were performed in a 384-well format using the same conditions as described above, except the assay volume was […] and the AMP concentration for the AMPD2 assay was 8 mM. Different AMPD enzyme concentrations were used to have linear reactions: hAMPD1 (4 nM), hAMPD2 (38 nM), hAMPD3 (1 nM), rAMPD1 (116 nM), rAMPD2 (53 nM), rAMPD3 (31 nM), and mAMPD1 (816 nM).

For another assay, the target named is T2, AMP deaminase 2 (Rattus norvegicus, UniProt Q02356).
T2 sequence (Q02356 whole entry): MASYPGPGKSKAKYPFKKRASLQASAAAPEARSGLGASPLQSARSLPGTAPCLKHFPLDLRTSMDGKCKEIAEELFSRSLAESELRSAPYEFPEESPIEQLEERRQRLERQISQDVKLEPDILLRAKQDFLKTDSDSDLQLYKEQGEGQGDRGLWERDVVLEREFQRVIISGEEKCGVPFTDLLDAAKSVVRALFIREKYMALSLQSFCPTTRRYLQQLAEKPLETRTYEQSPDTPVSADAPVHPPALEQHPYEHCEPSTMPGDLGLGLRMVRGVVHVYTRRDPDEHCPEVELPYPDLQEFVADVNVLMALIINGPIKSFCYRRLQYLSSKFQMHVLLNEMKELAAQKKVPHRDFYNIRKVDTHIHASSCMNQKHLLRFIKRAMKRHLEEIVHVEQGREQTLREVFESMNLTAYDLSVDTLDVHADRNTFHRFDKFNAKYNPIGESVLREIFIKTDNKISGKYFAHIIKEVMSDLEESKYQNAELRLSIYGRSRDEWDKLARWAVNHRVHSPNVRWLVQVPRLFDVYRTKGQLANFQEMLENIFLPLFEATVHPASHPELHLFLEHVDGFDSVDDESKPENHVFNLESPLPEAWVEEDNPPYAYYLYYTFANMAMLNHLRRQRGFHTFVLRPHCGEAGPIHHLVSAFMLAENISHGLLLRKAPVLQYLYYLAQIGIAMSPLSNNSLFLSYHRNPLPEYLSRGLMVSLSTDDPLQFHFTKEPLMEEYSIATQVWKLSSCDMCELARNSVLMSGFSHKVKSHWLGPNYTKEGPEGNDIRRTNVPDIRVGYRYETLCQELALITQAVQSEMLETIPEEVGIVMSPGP
The method, then: as §1

A further assay concerns the target T3, AMP deaminase 1 (Mus musculus, UniProt Q3V1D3).
T3 sequence (Q3V1D3 whole entry): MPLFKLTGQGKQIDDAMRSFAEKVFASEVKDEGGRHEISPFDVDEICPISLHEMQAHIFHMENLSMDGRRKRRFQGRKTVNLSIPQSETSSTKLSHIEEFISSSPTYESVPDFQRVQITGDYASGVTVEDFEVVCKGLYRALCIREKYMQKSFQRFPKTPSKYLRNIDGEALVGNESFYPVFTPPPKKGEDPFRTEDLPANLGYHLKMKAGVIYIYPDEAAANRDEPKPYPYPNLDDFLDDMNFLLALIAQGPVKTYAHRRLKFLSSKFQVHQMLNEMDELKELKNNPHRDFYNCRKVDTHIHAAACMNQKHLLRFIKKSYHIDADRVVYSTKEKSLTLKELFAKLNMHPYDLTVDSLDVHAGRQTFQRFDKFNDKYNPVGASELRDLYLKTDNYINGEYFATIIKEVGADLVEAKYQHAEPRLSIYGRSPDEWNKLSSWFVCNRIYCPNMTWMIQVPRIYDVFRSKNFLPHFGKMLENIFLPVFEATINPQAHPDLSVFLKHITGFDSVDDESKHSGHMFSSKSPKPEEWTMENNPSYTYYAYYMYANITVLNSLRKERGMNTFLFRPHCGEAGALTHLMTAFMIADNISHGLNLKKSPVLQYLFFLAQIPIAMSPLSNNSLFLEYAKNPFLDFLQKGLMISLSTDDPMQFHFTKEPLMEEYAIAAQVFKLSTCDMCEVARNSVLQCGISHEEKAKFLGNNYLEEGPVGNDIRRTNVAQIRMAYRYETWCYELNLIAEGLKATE
The method, then: as §1

A word on the IC50: it is the concentration at which inhibition is half-maximal. Low values mean greater potency, high ones weaker potency. Regarding `C[C@@H](NCc1ccc(-c2ccc(C(=O)O)cn2)cc1)c1cccc2ccncc12` [6-[4-({[(1R)-1-(isoquinolin-8-yl)ethyl]amino}methyl)phenyl]pyridine-3-carboxylic acid (Compound 2)], the IC50 against AMP deaminase 3 was 7.3 µM; on AMP deaminase 2 it was 32 µM; at AMP deaminase 1, 4500 nM.

Take `C[C@H](NCc1ccc(-c2ccc(C(=O)O)cn2)cc1)c1cccc2ccncc12` [6-[4-({[(1S)-1-(isoquinolin-8-yl)ethyl]amino}methyl)phenyl]pyridine-3-carboxylic acid (Compound 3)]: the IC50 stood at 0.075 µM on AMP deaminase 3, 0.57 µM at AMP deaminase 2 and 24 nM on AMP deaminase 1.
